Test results reported in patent US6737383B1, “Herbicidal oxadiazolidines” (priority 1999, dated 2004).

Columns and labels:
[1] = system: rape; assay: Test B pre/postemergence rape; assay type: in vivo, Brassica napus
Excerpt: (§1) Seeds of bedstraw (Galium aparine), blackgrass (Alopecurus myosuroides), surinam grass (Brachiaria decumbens), cocklebur (Xanthium strumarium), corn (Zea mays), crabgrass (Digitaria sanguinalis), giant foxtail (Setaria faberii), morningglory (Ipomoea hederacea), pigweed (Amaranthus retroflexus), rape (Brassica napus), soybean (Glycine max), sugar beet (Beta vulgaris), velvetleaf (Abutilon theophrasti), wheat (Triticum aestivum), wild oat (Avena fatua) and purple nutsedge (Cyperus rotundus) tubers were planted and treated preemnergence with test chemicals formulated in a non-phytotoxic solvent mixture which included a surfactant.
(§2) At the same time, these crop and weed species were also treated with postemergence applications of test chemicals formulated in the same manner. Plants ranged in height from 2 to 18 cm (1- to 4-leaf stage) for postemergence treatments. Plant species in the flood test consisted of rice (Oryza sativa), smallflower flatsedge (Cyperus difformis), duck salad (Heteranthera limosa) and bamyardgrass (Echinochloa crus-galli) grown to the 2-leaf stage for testing. Treated plants and controls were maintained in a greenhouse for twelve to sixteen days, after which all species were compared to controls and visually evaluated. Plant response ratings, summarized in Table B, are based on a scale of 0 to 10 where 0 is no effect and 10 is complete control. A dash (−) response means no test result.

[2] = system: bedstraw; assay: Test B pre/postemergence bedstraw; assay type: in vivo, Galium aparine
Method in brief: (§3)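 Response is a visual 0-to-10 score relative to untreated plants, where 0 means no effect and 10 means complete control, taken twelve to sixteen days after application. Treatments went onto soil at planting and onto foliage of 1- to 4-leaf plants, using a surfactant-containing non-phytotoxic solvent.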

[3] = system: wheat; assay: Test B pre/postemergence wheat; assay type: in vivo, Triticum aestivum
Excerpt: as §1, §2

[4] = system: blackgrass; assay: Test B pre/postemergence blackgrass; assay type: in vivo, Alopecurus myosuroides
Excerpt: as §1, §2

[5] = system: pigweed; assay: Test B pre/postemergence pigweed; assay type: in vivo, Amaranthus retroflexus
Excerpt: as §1, §2

[6] = system: corn; assay: Test B pre/postemergence corn; assay type: in vivo, Zea mays
Excerpt: as §1, §2

[7] = system: velvetleaf; assay: Test B pre/postemergence velvetleaf; assay type: in vivo, Abutilon theophrasti
Excerpt: as §1, §2

[8] = system: giant foxtail; assay: Test B pre/postemergence giant foxtail; assay type: in vivo, Setaria faberii
Method in brief: as §3

[9] = system: morningglory; assay: Test B pre/postemergence morningglory; assay type: in vivo, Ipomoea hederacea
Excerpt: as §1, §2

[10] = system: cocklebur; assay: Test B pre/postemergence cocklebur; assay type: in vivo, Xanthium strumarium
Excerpt: as §1, §2

[11] = system: crabgrass; assay: Test B pre/postemergence crabgrass; assay type: in vivo, Digitaria sanguinalis
Excerpt: as §1, §2

[12] = system: wild oat; assay: Test B pre/postemergence wild oat; assay type: in vivo, Avena fatua
Excerpt: as §1, §2

[13] = system: purple nutsedge; assay: Test B pre/postemergence purple nutsedge; assay type: in vivo, Cyperus rotundus
Excerpt: as §1, §2

[14] = system: surinam grass; assay: Test B pre/postemergence surinam grass; assay type: in vivo, Brachiaria decumbens
Excerpt: as §1, §2

[15] = system: soybean; assay: Test B pre/postemergence soybean; assay type: in vivo, Glycine max
Excerpt: as §1, §2

[16] = system: sugar beet; assay: Test B pre/postemergence sugar beet; assay type: in vivo, Beta vulgaris
Method in brief: as §3

[17] = Postemergence, Rate 62 g/ha, scale of 0 to 10, 0 is no effect, 10 is complete control
[18] = Postemergence, Rate 125 g/ha, scale 0 to 10, 0 is no effect, 10 is complete control
[19] = Postemergence, Rate 500 g/ha, scale 0 to 10, 0 is no effect, 10 is complete control
[20] = Preemergence, Rate 62 g/ha, scale 0 to 10 (0 no effect, 10 complete control)
[21] = Preemergence, Rate 125 g/ha, scale 0 to 10, 0 is no effect, 10 is complete control
[22] = Preemergence, Rate 500 g/ha, scale of 0 to 10 where 0 is no effect and 10 is complete control
[23] = Rate 250 g/ha, Postemergence, scale of 0 to 10 where 0 is no effect and 10 is complete control

CC(C)N(C(=O)n1oc(=O)n(CCCCF)c1=O)c1ccc(Cl)cc1 [Compound 551]
Rape plant response rating [1, 17]: 3 | Rape plant response rating [1, 18]: 7 | Plant response rating, Rape [1, 19]: 5 | Rape plant response rating [1, 20]: 0 | Rape plant response rating [1, 21]: 3 | Rape plant response rating (0 to 10 scale) ([1]; Preemergence, Rate 250 g/ha): 3 | Rape plant response rating [1, 22]: 9 | Plant response rating, Rape [1, 23]: 7 | Bedstraw plant response rating [2, 17]: 0 | Bedstraw plant response rating [2, 18]: 0 | Plant response rating, Bedstraw [2, 19]: 9 | Bedstraw plant response rating [2, 21]: 8 | Bedstraw plant response rating [2, 22]: 10 | Plant response rating, Bedstraw [2, 23]: 4 | Wheat plant response rating [3, 17]: 0 | Plant response rating, Wheat [3, 19]: 3 | Wheat plant response rating [3, 20]: 0 | Wheat plant response rating [3, 21]: 0 | Wheat plant response rating (0 to 10 scale) ([3]; Preemergence, Rate 250 g/ha): 3 | Wheat plant response rating [3, 22]: 6 | Plant response rating, Wheat [3, 23]: 0 | Blackgrass plant response rating [4, 17]: 4 | Blackgrass plant response rating [4, 18]: 7 | Plant response rating, Blackgrass [4, 19]: 7 | Blackgrass plant response rating [4, 20]: 3 | Blackgrass plant response rating [4, 21]: 7 | Blackgrass plant response rating (0 to 10 scale) ([4]; Preemergence, Rate 250 g/ha): 9 | Blackgrass plant response rating [4, 22]: 9 | Plant response rating, Blackgrass [4, 23]: 7 | Redroot pigweed plant response rating [5, 17]: 0 | Plant response rating, Redroot pigweed [5, 19]: 7 | Redroot pigweed plant response rating [5, 20]: 8 | Redroot pigweed plant response rating [5, 21]: 9 | Redroot pigweed plant response rating (0 to 10 scale) ([5]; Preemergence, Rate 250 g/ha): 10 | Redroot pigweed plant response rating [5, 22]: 10 | Plant response rating, Redroot pigweed [5, 23]: 3 | Corn plant response rating [6, 17]: 0 | Corn plant response rating [6, 18]: 0 | Plant response rating, Corn [6, 19]: 0 | Corn plant response rating [6, 20]: 0 | Corn plant response rating [6, 21]: 0 | Corn plant response rating (0 to 10 scale) ([6]; Preemergence, Rate 250 g/ha): 0 | Corn plant response rating [6, 22]: 5 | Plant response rating, Corn [6, 23]: 0 | Velvetleaf plant response rating [7, 17]: 0 | Plant response rating, Velvetleaf [7, 19]: 3 | Velvetleaf plant response rating [7, 20]: 0 | Velvetleaf plant response rating [7, 21]: 0 | Velvetleaf plant response rating (0 to 10 scale) ([7]; Preemergence, Rate 250 g/ha): 2 | Velvetleaf plant response rating [7, 22]: 4 | Plant response rating, Velvetleaf [7, 23]: 3 | Giant foxtail plant response rating [8, 17]: 0 | Plant response rating, Giant foxtail [8, 19]: 5 | Giant foxtail plant response rating [8, 20]: 10 | Giant foxtail plant response rating [8, 21]: 10 | Giant foxtail plant response rating (0 to 10 scale) ([8]; Preemergence, Rate 250 g/ha): 10 | Giant foxtail plant response rating [8, 22]: 10 | Plant response rating, Giant foxtail [8, 23]: 5 | Morningglory plant response rating [9, 17]: 1 | Morningglory plant response rating [9, 18]: 2 | Plant response rating, Morningglory [9, 19]: 3 | Morningglory plant response rating [9, 20]: 0 | Morningglory plant response rating [9, 21]: 0 | Morningglory plant response rating (0 to 10 scale) ([9]; Preemergence, Rate 250 g/ha): 0 | Morningglory plant response rating [9, 22]: 0 | Plant response rating, Morningglory [9, 23]: 4 | Cocklebur plant response rating [10, 17]: 0 | Cocklebur plant response rating [10, 18]: 0 | Plant response rating, Cocklebur [10, 19]: 0 | Cocklebur plant response rating [10, 20]: 0 | Cocklebur plant response rating [10, 21]: 0 | Cocklebur plant response rating (0 to 10 scale) ([10]; Preemergence, Rate 250 g/ha): 0 | Cocklebur plant response rating [10, 22]: 0 | Plant response rating, Cocklebur [10, 23]: 0 | Crabgrass plant response rating [11, 17]: 0 | Crabgrass plant response rating [11, 18]: 6 | Plant response rating, Crabgrass [11, 19]: 9 | Crabgrass plant response rating [11, 20]: 9 | Crabgrass plant response rating [11, 21]: 9 | Crabgrass plant response rating (0 to 10 scale) ([11]; Preemergence, Rate 250 g/ha): 10 | Crabgrass plant response rating [11, 22]: 10 | Plant response rating, Crabgrass [11, 23]: 8 | Wild oats plant response rating [12, 17]: 0 | Plant response rating, Wild oats [12, 19]: 5 | Wild oats plant response rating [12, 20]: 0 | Wild oats plant response rating [12, 21]: 3 | Wild oats plant response rating (0 to 10 scale) ([12]; Preemergence, Rate 250 g/ha): 3 | Wild oats plant response rating [12, 22]: 9 | Plant response rating, Wild oats [12, 23]: 0 | Plant response rating, Nutsedge [13, 19]: 0 | Nutsedge plant response rating [13, 20]: 0 | Nutsedge plant response rating [13, 21]: 0 | Nutsedge plant response rating (0 to 10 scale) ([13]; Preemergence, Rate 250 g/ha): 0 | Nutsedge plant response rating [13, 22]: 0 | B. signalgrass plant response rating [14, 17]: 0 | B. signalgrass plant response rating [14, 18]: 0 | Plant response rating, B. signalgrass [14, 19]: 4 | B. signalgrass plant response rating [14, 20]: 4 | B. signalgrass plant response rating [14, 21]: 9 | B. signalgrass plant response rating (0 to 10 scale, 0 is no effect, 10 is complete control) ([14]; Preemergence, Rate 250 g/ha): 9 | B. signalgrass plant response rating [14, 22]: 9 | Plant response rating, B. signalgrass [14, 23]: 2 | Soybean plant response rating [15, 17]: 2 | Plant response rating, Soybean [15, 19]: 3 | Soybean plant response rating [15, 20]: 0 | Soybean plant response rating [15, 21]: 0 | Soybean plant response rating (0 to 10 scale) ([15]; Preemergence, Rate 250 g/ha): 0 | Soybean plant response rating [15, 22]: 0 | Plant response rating, Soybean [15, 23]: 3 | Sugarbeets plant response rating [16, 17]: 2 | Plant response rating, Sugarbeets [16, 19]: 8 | Sugarbeets plant response rating [16, 20]: 2 | Sugarbeets plant response rating [16, 21]: 6 | Sugarbeets plant response rating (0 to 10 scale) ([16]; Preemergence, Rate 250 g/ha): 7 | Sugarbeets plant response rating [16, 22]: 9 | Plant response rating, Sugarbeets [16, 23]: 5
